In patent publication US20220031710A1, “USE OF ERK5 INHIBITORS FOR TREATING GLIOMAS IN PEDIATRIC SUBJECTS” (UNIVERSITY OF PITTSBURGH - OF THE COMMONWEALTH SYSTEM OF …, priority 2019, published 2022):

Legend:
ERK5 [1] = molecular target: T1, ERK5 (Homo sapiens, UniProt Q13164); test: Western blot of ERK5 phosphorylation sites in DIPG cells; format: cell-based; set-up: endogenous in cells; host or cells: DIPG-007 and DIPG-IV cells; details: DIPG-007 and DIPG-IV cells
Experimental: (§1) Cell pellets were lysed in PLC lysis buffer containing protease and phosphatase inhibitors (Roche Inc.). Protein lysates were quantified using the bicinchoninic acid (BCA) assay (Pierce Chemical Co., Rockford, Ill.). 30 μg of total protein lysate was loaded in 10% SDS-PAGE gels and electrophoresed. Proteins were transferred to PVDF membranes using a semi-dry transfer apparatus (Bio-Rad). Membranes were blocked for one hour and probed for various proteins overnight in 5% non-fat milk or 5% BSA in Tris Buffered Saline Solution, 0.5% Tween-20 (TBST) or Phosphate Buffered Saline Solution with 0.5% Tween-20 (PBST). Membranes were washed for 5 mins in TBST (3×) and incubated with horseradish peroxidase-conjugated antibodies specific for the primary antibody (BioRad Laboratories, Inc., CA, USA). Binding was detected using Chemiluminescence Reagent Plus (PerkinElmer Inc., MA, USA).

DIPG-IV cells = test: Cleaved Caspase 3/7 assay in DIPG-IV cells expressing ERK5 constructs; format: cell-based, human; details: 500 nM; DIPG-IV cells expressing ERK5-HA or ERK5-HA T733E vs empty vector
ERK5 [2] = molecular target: T1, ERK5; test: Western blot of tumor lysates from treated mice (pERK5, cleaved PARP); format: in vivo; set-up: from tissue; host or cells: Tumour lysates from orthotopic DIPG xenografts (SF8628 or DIPG-13p) in NOD-SCID mice; details: mice sacrificed after 5 days of treatment
Experimental: as §1, with “MA, USA). Antibodies were used at the following dilutions:” for “MA, USA).”
(§2) All animal procedures were carried out ethically according to animal user protocols approved by Institutional Animal Care Committee (IACUC). 4-6 week-old non-obese diabetic severe combined immune deficiency male or female mice (NOD-SCID-Prkdc^scid) were injected with 1×10^5 SU-DIPG-13p cells or 1×10^5 SF8628 DIPG cells. […]

CNMC-XD-760 = test: Alamar blue viability EC50 in H3 wildtype DIPG cell line; format: cell-based, human; details: CNMC-XD-760 (DIPG histone wildtype H3) compared to H3 mutant DIPG cells and hemispheric pGBM cells; 96 h
Experimental: (§3) Direct cell counts were performed using the Countess II FL Automated Cell Counter (ThermoFisher Scientific). Alamar blue viability (ThermoFisher Scientific) and the 5-bromo-2′-deoxyuridine (BrdU) incorporated cell proliferation assay (Cell Signaling Technology Cat #6813) were performed using the manufacturer's standard protocol. EC50 curve analysis was performed using raw fluorescent Alamar blue values that were inputted into PRISM 7.0. Drug concentrations were log 10 transformed and values normalized to percent viability with respect to vehicle treated cells. EC50 values were interpolated from a log inhibitor vs. normalized response with variable slope using a least square fit model.

[3] = system: DIPG-007, DIPG-IV, SF8628, and DIPG-13p cells; test: Alamar blue viability EC50 dose response in H3K27M DIPG cells; format: cell-based; details: Homo sapiens, 96 h, SF8628, DIPG-13p cells, lowest of the ERK5 inhibitors tested
Experimental: Human Neural Stem Cells (H9 hESC-Derived) were purchased from Invitrogen and grown in DMEM/F12 containing penicillin/streptomycin/amphotericin B (1% vol/vol) supplemented with N2 (2% vol/vol; Invitrogen), EGF (20 ng/ml; Invitrogen), and FGF-2 (20 ng/ml; Invitrogen). DIPG cell lines (all with the H3K27M mutation) SU-DIPG-IV (DIPG-IV), SU-DIPG-13p (DIPG-13p), and HSJD-DIPG-007 (DIPG-007) were grown and passaged in DIPG medium as previously reported (Grasso et al., Nature medicine 2015; 21:555-9; Nagaraja et al., Cancer cell 2017; 31:635-52 e6; Vinci et al., Nature medicine 2018). SF8628 and immortalized NHAs were grown in DMEM (Invitrogen) supplemented with 10% FBS (Invitrogen). All cell lines were confirmed by STR profiling and tested mycoplasma negative by PCR. All tumor-derived cell lines used are described in Table 2.
as §3, with “EC50 values were interpolated from a log inhibitor vs. normalized response with variable slope using a least square fit model.” left out

[4] = system: SF8628 intracranial xenografts; test: SF8628 orthotopic xenograft model; format: in vivo, mice
Experimental: Paraffin embedded blocks were cut in 5 μm sections. Slides were processed as follows: de-waxed in xylene followed by rehydration in a standard alcohol series. Antigen retrieval was by pressure cooking for 20 minutes in citrate buffer (pH 6.0), followed by blocking of endogenous peroxidase in 3% H2O2. The antibodies were added and incubated overnight at 4° C. Antibodies were detected using a secondary-HRP labeled mouse or rabbit antibody detection system (Dako EnVision+ System-HRP cat #k4401, cat #k4403) followed by addition 3,3′-Diaminobenzidine (DAB) chromagen (Vector Labs) for visualization. Sections were counter-stained with hematoxylin (Fisher Scientific Inc., Canada) and slides dehydrated in 70, 80, and 100% ethanol and xylene. Slides were cover slipped and mounted in Permount (Fisher Scientific Inc.). Antibodies and concentrations for IHC are as follows: Ki67 (1:100, Dako, cat #F7268). All images were captured on a Leica DM 100 microscope using Leica Application Suite Software (Switzerland, Version 3.8.0).
as §2

T1 sequence (Q13164 whole entry): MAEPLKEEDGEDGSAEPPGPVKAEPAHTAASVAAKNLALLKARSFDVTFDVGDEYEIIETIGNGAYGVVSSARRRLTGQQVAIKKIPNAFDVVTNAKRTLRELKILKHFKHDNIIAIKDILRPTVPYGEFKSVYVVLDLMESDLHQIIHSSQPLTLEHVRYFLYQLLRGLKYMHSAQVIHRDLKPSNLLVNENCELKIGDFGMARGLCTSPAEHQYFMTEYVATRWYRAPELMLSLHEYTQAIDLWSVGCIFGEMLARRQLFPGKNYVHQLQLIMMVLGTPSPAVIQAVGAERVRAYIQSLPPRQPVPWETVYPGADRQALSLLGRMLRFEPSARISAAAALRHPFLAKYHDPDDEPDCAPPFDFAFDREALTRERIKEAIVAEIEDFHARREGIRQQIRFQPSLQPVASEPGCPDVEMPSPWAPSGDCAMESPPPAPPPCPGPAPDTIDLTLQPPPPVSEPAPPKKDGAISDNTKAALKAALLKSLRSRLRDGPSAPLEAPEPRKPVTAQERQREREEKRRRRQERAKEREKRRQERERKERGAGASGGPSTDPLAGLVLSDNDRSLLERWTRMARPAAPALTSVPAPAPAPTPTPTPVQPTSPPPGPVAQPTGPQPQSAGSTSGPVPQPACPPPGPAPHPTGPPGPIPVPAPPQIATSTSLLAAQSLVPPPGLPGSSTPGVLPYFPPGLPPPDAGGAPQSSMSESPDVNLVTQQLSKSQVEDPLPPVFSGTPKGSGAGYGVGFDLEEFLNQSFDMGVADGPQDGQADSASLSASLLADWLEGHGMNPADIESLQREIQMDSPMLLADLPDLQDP

Structure (SMILES): CCOc1cc(C(=O)N2CCC(N3CCN(C)CC3)CC2)ccc1Nc1ncc2c(n1)N(C1CCCC1)c1ccccc1C(=O)N2C [ERK5-IN-1, 11-cyclopentyl-2-[[2-ethoxy-4-[[4-(4-methyl-1-piperazinyl)-1-piperidinyl]carbonyl]phenyl]amino]-5,11-dihydro-5-methyl-6H-pyrimido[4,5b][1,4]benzodiazepin-6-one]
- ERK5 Thr218/Tyr220 phosphorylation (regulated by MEK5) (ERK5 [1]): did not inhibit
- ERK5 auto-phosphorylation and ERK5 activity sites (Ser731 and Thr733) (ERK5 [1]; at 100 nM): inhibit
- cleaved Caspase 3/7 levels (DIPG-IV cells): reduced cleaved Caspase 3/7 levels
- apoptosis by cleaved PARP in vivo (ERK5 [2]): induction of apoptosis
- in vivo ERK5 auto-phosphorylation (ERK5 [2]): inhibition of ERK5 auto-phosphorylation
- EC50 values for ERK5-IN-1 (CNMC-XD-760): highest EC50 values
- EC50 [3]: 0.5 to 1 µM
- median survival ([4]; 50 mg/kg for 2 weeks (2 cycles of 5 days on 2 days off), SF8628 intracranial xenografts): 40 days
- KI-67 staining ([4]; 50 mg/kg, SF8628 xenograft tumors, vs vehicle): reduced
